{"source": "patent US20240269104A1", "about": "“METHOD FOR TREATING PARKINSON'S DISEASE” (Olatec Therapeutics, Inc., priority 2021, published 2024)", "key": {"TREM2": {"tested_on": "TREM2", "experiment": "TREM2 immunoblotting in the striatum after MPTP-acute administration", "format": "in vivo, mice", "settings": "200 mg/kg once each day; day 4 after MPTP-acute", "description": "In this example, we measured the levels of […] (TREM2) after dapansutrile treatment. TREM2 may be a potential target for treating PD. For TREM2, mice were sacrificed at day 4 after MPTP-acute administration. The St was excised, and proteins were extracted and quantified as described in Example 9. 30 μg of protein per sample were resolved in a Mini-PROTEAN TGX 4-20% gradient gel (Bio-Rad, Hercules, CA) in 0.1% SDS running buffer (Bio-Rad). The gel was transferred to a […] nitrocellulose membrane (GE Healthcare, Chicago, IL). Membranes were blocked with 5% blocking buffer (Bio-Rad) in TBS 0.1% (v/v) Tween solution for one hour at room temperature. Samples were incubated overnight with primary antibody for mouse TREM2 (1:1000, Cell Signaling, Danvers, MA). Peroxidase-conjugated secondary antibody (Jackson ImmunoResearch, Philadelphia, PA) and chemiluminescence were used to detect the protein concentration. Conjugated antibody against β-actin (Santa Cruz Biotechnology, Dallas, TX) was used to normalize protein concentrations. Protein bands for monomeric and oligomeric forms of each individual mice were quantified using NIH ImageJ software. Four mice per group were used."}, "IL-17A": {"tested_on": "IL-17A", "experiment": "IL-17A in brain homogenates by ELISA after MPTP", "format": "in vivo, mice", "settings": "200 mg/kg once each day; seven days after MPTP-acute; MPTP+saline 58 pg/μg", "excerpt": "It has been reported that administration of MPTP induces the assembly of NLPR3 inflammasome in the brain. Mice were sacrificed after anesthesia by cervical dislocation at 4 and 7 days after MPTP administration. Brains were collected, and the striatum (St) and ventral midbrain (VM) areas of both hemispheres were excised and frozen in liquid nitrogen. Samples were homogenized in RIPA buffer (Thermo Fisher, Waltham, MA) supplemented with protease inhibitor (Thermo Fisher) using a TissueRuptor (Qiagen, Germantown, MD). Protein concentration was determined using a BCA Protein Assay Kit (Thermo Fisher) according to manufacturer's instructions. Samples were diluted to 2 mg/ml in the same extraction buffer.\nLevels of IL-1β, IL-18, IL-6, and IL-17A from brain homogenates were measured by ELISA DuoSet kit (R&D Systems, Minneapolis, MN). ELISA kit for IL-1β detects 92-95% of the 17 kDa form and only 8-5% of the precursor form of this cytokine. 96-well plates (ThermoFisher Scientific) were coated with capture antibody. Samples were incubated for two hours at room temperature. Detection antibodies and streptavidin-HRP were added. TMB ELISA (cBioscience, San Diego, CA) was used as substrate solution. Results were measured in a microplate reader (Bio-Tek, Santa Clara, CA). Final values were normalized by the protein concentration of each sample. 4-5 mice per group were used for each cytokine."}, "IL-6": {"tested_on": "IL-6", "experiment": "IL-6 in LPS-stimulated cultured splenocytes from MPTP-injected mice", "format": "in vivo", "settings": "mice treated 200 mg/kg for seven days; splenocytes cultured with LPS, supernatant", "description": "Seven days after MPTP-acute administration, peripheral blood and spleen were isolated from each mouse, and hematological changes in the peripheral blood and cytokine production in the spleen were evaluated. […] White blood cells, lymphocytes, monocytes, and granulocytes were measured from the peripheral blood using a HemaTrue cell counter (Heska, Loveland, CO). Spleens were isolated and mechanically passed through a 70 μm cell strainer (ThermoFisher) in PBS. Cells were plated in a 96-well plate at a concentration of 200,000 cells/well in RPMI medium (Coring, New York, NY) with 10% FBS. After that, cells were stimulated with LPS at 1 μg/ml and 5 μg/ml. RPMI medium was used as control. After 72 hours, supernatant was isolated to measure the levels of IL-6. Cells were lysed with RIPA buffer (ThermoFisher) supplemented with protease inhibitor (ThermoFisher) to measure IL-1α levels. In both cases, 5-6 mice per group were used."}, "[1]": {"experiment": "brain levels of dapansutrile after fortified feed pellets", "format": "in vivo, mice", "settings": "oral", "description": "Mice were treated with dapansutrile by ad libitum consumption of dapansutrile-fortified feed pellets (7.5 g/kg) for 21 days. Control mice received a matching unfortified diet without dapansutrile. Mice were monitored during the study for any changes in physiological parameters, including irregular weight gain or loss as well as changes in body temperature. On day 21, mice were sacrificed, and brains were isolated. Dapansutrile measurements in the whole brain homogenates were performed at Syneos Health (Princeton, NJ). Five mice per group were assessed. […] The ability of dapansutrile to cross BBB even when delivered orally provides a potential advance for the treatment of chronic patients like PD."}, "α-synuclein": {"tested_on": "α-synuclein", "experiment": "α-synuclein Western blot in the ventral midbrain after MPTP-subacute administration", "format": "in vivo, mice", "settings": "200 mg/kg for 6 days, 24 hours after last MPTP injection", "description": "MPTP (Sigma-Aldrich, St. Louis, MO) can be administered at two dose regimens: acute and sub-acute. For the acute regimen, MPTP was administered intraperitoneally (i.p.) four times in one day. Administrations were performed every two hours over an eight-hour period. For the subacute regimen, mice received a single i.p. administration of MPTP per day for five consecutive days. A 20 mg/kg free-base MPTP dose was used for every dose in both models. Sterile saline was used as the vehicle. Control mice were injected with saline solution using the same administration protocol and were defined as sham. Mice were sacrificed at different days after the first injection of MPTP. We used the acute protocol in C56BL/J mice to study dopamine neurodegeneration, inflammation, and motor deficits, whereas the subacute model was used to evaluate α-synuclein aggregation in the following examples.\nSince MPTP promotes α-synuclein aggregation after subacute regimen, we evaluated the effect of dapansutrile on the levels of this protein. 24 hours after the last injection of MPTP, mice were sacrificed. The VM was excised, and proteins were resolved as described in Example 9. VM was selected as the region to evaluate α-synuclein accumulation according to previous publications. […] The levels of α-synuclein were determined by Western blot. […]"}, "[2]": {"settings": "fortified feed pellets, 21 days"}}, "data": [{"compound": "CS(=O)(=O)CCC#N", "note": "[dapansutrile, 3-methanesulfonylpropionitrile]", "values": [{"measurement": "levels of 35 kDa-glycosylated form of TREM2 in the striatum", "setting": "TREM2", "result": "no changes"}, {"measurement": "levels of nonglycosylated form of TREM2 (28 kDa) in the striatum", "setting": "TREM2", "result": "significantly increased, reaching basal condition"}, {"measurement": "levels of IL-17A in the ventral midbrain (VM) after treatment", "setting": "IL-17A", "result": 46, "unit": "pg/µg"}, {"measurement": "IL-6 production by splenocytes", "setting": "IL-6", "result": "restoring the effects of MPTP"}, {"measurement": "concentration at 21 days", "setting": "[1]; mouse, brain (whole brain homogenate), fortified feed pellets 7.5 g/kg ad libitum, whole brain homogenates, read-out: dapansutrile level in the brain", "result": 47000, "unit": "ng/g"}, {"measurement": "brain level relative to concentration required to inhibit the NLRP3 assembly", "setting": "[1]; [2]", "result": "at least 30 times"}, {"measurement": "crossing of the blood-brain barrier", "setting": "[1]; [2]", "result": "readily crosses the BBB"}, {"measurement": "levels of monomeric form of α-synuclein (17 kDa) in the ventral midbrain", "setting": "α-synuclein", "result": "significantly reduced"}, {"measurement": "levels of oligomeric forms of α-synuclein (150-30 kDa) in the ventral midbrain", "setting": "α-synuclein", "result": "significantly reduced"}]}]}
